In ChEMBL document CHEMBL5543117, “Novel TLR4-Activating Vaccine Adjuvant Enhances the Production of Enterococcus faecium-binding Antibodies” (J Med Chem, 2024):
Each block holds one compound with its values, some of them ahead of it. Calls of active or inactive are those of the source. No cut-off for these calls is given here.

What was measured:
[1] = biological target: Toll-like receptor 4 (Homo sapiens) (UniProt O00206); experiment: Agonist activity at human TLR4 in HEK-Blue hTLR4 cells assessed as increase in SEAP level incubated for 16 to 18 hrs by SEAP reporter gene based Quanti-Blue assay; format: cell-based; conditions: filed as agonist, dose 0.1-25 µM, time 16-18 hrs
[2] = biological target: Toll-like receptor 2 (Homo sapiens) (UniProt O60603); experiment: Agonist activity at human TLR2 in HEK-Blue hTLR2 cells assessed as increase in SEAP level at 0.1 to 25 uM incubated for 16 to 18 hrs by SEAP reporter gene based Quanti-Blue assay; format: cell-based; conditions: dose 0.1-25 µM, time 16-18 hrs
THP1-Xblue [3] = experiment: Immunostimulatory activity in human THP1-Xblue cells assessed as increase in TNF-alpha release incubated for 16 to 18 hrs by ELISA; format: functional, cell-based; conditions: dose 0.1-10 µM, time 16-18 hrs
THP1-Xblue [4] = experiment: Immunostimulatory activity in human THP1-Xblue cells assessed as increase in IL-1beta release incubated for 16 to 18 hrs by ELISA; format: functional, cell-based; conditions: dose 0.1-10 µM, time 16-18 hrs
THP1-Xblue [5] = experiment: Immunostimulatory activity in human THP1-Xblue cells assessed as increase in IL-6 release incubated for 16 to 18 hrs by ELISA; format: functional, cell-based; conditions: dose 0.1-10 µM, time 16-18 hrs
[6] = biological target: Toll-like receptor 4 (Homo sapiens) (UniProt O00206); experiment: Agonist activity at TLR4 in human THP1-Xblue cells assessed as increase in SEAP level at 0.1 to 10 uM incubated for 16 to 18 hrs by SEAP reporter gene based Quanti-Blue assay; format: cell-based; conditions: filed as agonist, dose 0.1-10 µM, time 16-18 hrs
[7] = biological target: Toll-like receptor 4 (Homo sapiens) (UniProt O00206); experiment: Agonist activity at TLR4 in human THP1-Xblue cells assessed as induction of IkappaBalpha degradation at 10 uM incubated for 15 mins by immunoblotting analysis; format: cell-based; conditions: filed as agonist
[8] = biological target: Toll-like receptor 4 (Homo sapiens) (UniProt O00206); experiment: Agonist activity at TLR4 in human THP1-Xblue cells assessed as induction of p65 phosphorylation at 10 uM incubated for 120 to 240 mins by immunoblotting analysis; format: cell-based; conditions: filed as agonist, time 120-240 min
[9] = biological target: Transcription factor p65 (Homo sapiens) (UniProt Q04206); experiment: Induction of NFkappaB p65 nuclear translocation in human THP1-Xblue cells assessed as percentage of positive nuclei at 10 uM measured after 90 mins by Hoechst 33342 staining based immunofluorescence analysis relative to control (reference value: 0%); format: cell-based
[10] = biological target: Transcription factor p65 (Homo sapiens) (UniProt Q04206); experiment: Induction of NFkappaB p65 nuclear translocation in human THP1-Xblue cells assessed as percentage of positive nuclei at 10 uM measured after 120 mins by Hoechst 33342 staining based immunofluorescence analysis (reference value: 0%); format: cell-based
[11] = Cytotoxicity against human THP1-Xblue cells assessed as reduction in cell viability at 0.1 to 10 uM incubated for 16 to 18 hrs by MTT assay; format: toxicity, cell-based; conditions: dose lower 0.1 µM, time lower 16 hrs, dose upper 10 µM, time upper 18 hrs
THP1-Xblue [12] = experiment: Activation of TRAM/TRIF pathway in human THP1-Xblue cells assessed as increase in IRF3 phosphorylation by Western blot analysis; format: cell-based
THP1-Xblue [13] = experiment: Activation of TRAM/TRIF pathway in human THP1-Xblue cells assessed as increase in STAT1 phosphorylation by Western blot analysis; format: cell-based
THP1-Xblue [14] = experiment: Activation of TRAM/TRIF pathway in human THP1-Xblue cells assessed as induction of phosphorylated IRF3 nuclear translocation by immunofluorescence analysis; format: cell-based
THP1-Xblue [15] = experiment: Induction of IFN-beta production in human THP1-Xblue cells; format: functional, cell-based
Mus musculus [16] = experiment: Adjuvant activity in OVA-immunized C57BL/6J mouse model assessed as increase in IgG levels at 10 ug, sc administered on day 0 and as booster dose on day 21 and measured after 42 days by ELISA; format: functional, organism-based; conditions: dose 10.0 µg, time 42.0 day
Mus musculus [17] = experiment: Adjuvant activity in OVA-immunized C57BL/6J mouse model assessed as increase in IgG1 levels at 10 ug, sc administered on day 0 and as booster dose on day 21 and measured after 42 days by ELISA; format: functional, organism-based; conditions: dose 10.0 µg, time 42.0 day
Mus musculus [18] = experiment: Adjuvant activity in OVA-immunized C57BL/6J mouse model assessed as increase in IgG2c levels at 10 ug, sc administered on day 0 and as booster dose on day 21 and measured after 42 days by ELISA; format: functional, organism-based; conditions: dose 10.0 µg, time 42.0 day
Mus musculus [19] = experiment: Effect on IgG2b levels in OVA-immunized C57BL/6J mouse model at 10 ug, sc administered on day 0 and as booster dose on day 21 and measured after 42 days by ELISA; format: functional, organism-based; conditions: dose 10.0 µg, time 42.0 day
[20] = Toxicity in OVA-immunized C57BL/6J mouse model assessed as change in body weight at 10 ug, SC administered on day 0 and measured after 4 days; conditions: in vivo, 96 h, dose 10 µg, time 4 day
[21] = Toxicity in OVA-immunized C57BL/6J mouse model assessed as change in ALT level at 10 ug, SC administered on day 0 and as booster dose on day 20 and measured after 40 days; conditions: in vivo, 960 h, dose 10 µg, time 40 day
[22] = Toxicity in OVA-immunized C57BL/6J mouse model assessed as change in AST level at 10 ug, SC administered on day 0 and as booster dose on day 20 and measured after 40 days; conditions: in vivo, 960 h, dose 10 µg, time 40 day
Oryctolagus cuniculus [23] = experiment: Adjuvant activity in Enterococcus faecium PpiC-immunized New Zealand rabbit model assessed as production of PpiC specific antibody in sera at 38.4 ug administered on day 0, 7.7 ug on day 7 and 14 and measured after 28 days by ELISA; format: functional, organism-based; conditions: time 28.0 day
Oryctolagus cuniculus [24] = experiment: Induction of antibody production in New Zealand rabbit at 38.4 ug administered on day 0, 7.7 ug on day 7 and 14 and measured after 28 days by ELISA; format: functional, organism-based; conditions: time 28.0 day
Oryctolagus cuniculus [25] = experiment: Adjuvant activity in Enterococcus faecium PpiC-immunized New Zealand rabbit model assessed as production of PpiC specific antibody in sera at 1:50 dilutions at 38.4 ug administered on day 0, 7.7 ug on day 7 and 14 and measured after 28 days by absorbance based analysis; format: functional, organism-based; conditions: time 28.0 day
Oryctolagus cuniculus [26] = experiment: Adjuvant activity in Enterococcus faecium PpiC-immunized New Zealand rabbit model assessed as production of PpiC specific antibody in sera at 1:100 dilutions at 38.4 ug administered on day 0, 7.7 ug on day 7 and 14 and measured after 28 days by absorbance based analysis; format: functional, organism-based; conditions: time 28.0 day
Oryctolagus cuniculus [27] = experiment: Adjuvant activity in Enterococcus faecium PpiC-immunized New Zealand rabbit model assessed as production of PpiC specific antibody in sera at 1:25600 dilutions at 38.4 ug administered on day 0, 7.7 ug on day 7 and 14 and measured after 28 days by absorbance based analysis; format: functional, organism-based; conditions: time 28.0 day
Oryctolagus cuniculus [28] = experiment: Adjuvant activity in Enterococcus faecium PpiC-immunized New Zealand rabbit model assessed as production of PpiC specific antibody in terminal bleed sera at 1:1600 dilutions at 38.4 ug administered on day 0, 7.7 ug on day 7 and 14 and measured after 28 days by ELISA; format: functional, organism-based; conditions: time 28.0 day
Oryctolagus cuniculus [29] = experiment: (§1) Adjuvant activity in Enterococcus faecium PpiC-immunized New Zealand rabbit model assessed as antibody production by measuring increase in vancomycin resistant Enterococcus faecium 11236/1 specific antibodies at 38.2 ug administered on day 0, 7.7 ug on day 7 and 14 and measured after 28 days by Whole-bacterial cell ELISA; format: functional, organism-based; conditions: time 28.0 day
Mus musculus [30] = experiment: Adjuvant activity in OVA-immunized C57BL/6J mouse model assessed as increase in IgG2b levels at 10 ug, sc administered on day 0 and as booster dose on day 21 and measured after 42 days by ELISA; format: functional, organism-based; conditions: dose 10.0 µg, time 42.0 day
Oryctolagus cuniculus [31] = experiment: Adjuvant activity in Enterococcus faecium PpiC-immunized New Zealand rabbit model assessed as production of PpiC specific antibody in sera at 70.2 ug administered on day 0, 14 ug on day 7 and 14 and measured after 28 days by ELISA; format: functional, organism-based; conditions: time 28.0 day
Oryctolagus cuniculus [32] = experiment: Adjuvant activity in Enterococcus faecium PpiC-immunized New Zealand rabbit model assessed as production of PpiC specific antibody in sera at 1:50 dilutions at 70.2 ug administered on day 0, 14 ug on day 7 and 14 and measured after 28 days by absorbance based analysis; format: functional, organism-based; conditions: time 28.0 day
Oryctolagus cuniculus [33] = experiment: Adjuvant activity in Enterococcus faecium PpiC-immunized New Zealand rabbit model assessed as production of PpiC specific antibody in sera at 1:100 dilutions at 70.2 ug administered on day 0, 14 ug on day 7 and 14 and measured after 28 days by absorbance based analysis; format: functional, organism-based; conditions: time 28.0 day
Oryctolagus cuniculus [34] = experiment: Adjuvant activity in Enterococcus faecium PpiC-immunized New Zealand rabbit model assessed as production of PpiC specific antibody in sera at 1:25600 dilutions at 70.2 ug administered on day 0, 14 ug on day 7 and 14 and measured after 28 days absorbance based analysis; format: functional, organism-based; conditions: time 28.0 day
Oryctolagus cuniculus [35] = experiment: Adjuvant activity in Enterococcus faecium PpiC-immunized New Zealand rabbit model assessed as production of PpiC specific antibody in terminal bleed sera at 1:1600 dilutions at 70.2 ug administered on day 0, 14 ug on day 7 and 14 and measured after 28 days by ELISA; format: functional, organism-based; conditions: time 28.0 day
Oryctolagus cuniculus [36] = experiment: as §1, with “70.2” for “38.2”, “14” for “7.7”; format: functional, organism-based; conditions: time 28.0 day
THP1-Xblue [37] = experiment: Immunostimulatory activity in human THP1-Xblue cells assessed as increase in IL-6 release at 0.1 to 10 uM incubated for 16 to 18 hrs by ELISA; format: functional, cell-based; conditions: dose 0.1-10 µM, time 16-18 hrs

Toll-like receptor 4 (Homo sapiens), sequence (O00206 whole entry): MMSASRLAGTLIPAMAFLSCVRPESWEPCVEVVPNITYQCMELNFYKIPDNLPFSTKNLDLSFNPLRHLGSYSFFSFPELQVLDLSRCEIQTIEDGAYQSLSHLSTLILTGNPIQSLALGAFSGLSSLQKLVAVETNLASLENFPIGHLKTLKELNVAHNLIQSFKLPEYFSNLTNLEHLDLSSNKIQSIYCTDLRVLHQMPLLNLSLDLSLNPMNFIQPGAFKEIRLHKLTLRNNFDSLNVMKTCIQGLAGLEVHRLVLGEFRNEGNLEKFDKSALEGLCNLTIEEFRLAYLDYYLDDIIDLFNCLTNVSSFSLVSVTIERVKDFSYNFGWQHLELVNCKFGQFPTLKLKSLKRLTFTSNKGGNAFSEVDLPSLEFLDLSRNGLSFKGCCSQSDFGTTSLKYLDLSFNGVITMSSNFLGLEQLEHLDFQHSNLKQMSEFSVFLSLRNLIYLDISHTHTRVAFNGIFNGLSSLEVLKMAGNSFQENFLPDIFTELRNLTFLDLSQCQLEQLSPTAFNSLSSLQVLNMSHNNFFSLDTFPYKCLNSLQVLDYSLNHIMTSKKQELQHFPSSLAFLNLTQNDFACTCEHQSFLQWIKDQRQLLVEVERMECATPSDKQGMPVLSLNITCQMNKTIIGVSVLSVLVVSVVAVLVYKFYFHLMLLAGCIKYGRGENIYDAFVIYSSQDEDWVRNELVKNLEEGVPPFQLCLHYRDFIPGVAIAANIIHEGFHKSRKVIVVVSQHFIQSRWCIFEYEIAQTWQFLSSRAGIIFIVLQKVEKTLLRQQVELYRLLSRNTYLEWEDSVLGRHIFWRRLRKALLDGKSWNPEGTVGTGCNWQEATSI
Transcription factor p65 (Homo sapiens), sequence (Q04206 whole entry): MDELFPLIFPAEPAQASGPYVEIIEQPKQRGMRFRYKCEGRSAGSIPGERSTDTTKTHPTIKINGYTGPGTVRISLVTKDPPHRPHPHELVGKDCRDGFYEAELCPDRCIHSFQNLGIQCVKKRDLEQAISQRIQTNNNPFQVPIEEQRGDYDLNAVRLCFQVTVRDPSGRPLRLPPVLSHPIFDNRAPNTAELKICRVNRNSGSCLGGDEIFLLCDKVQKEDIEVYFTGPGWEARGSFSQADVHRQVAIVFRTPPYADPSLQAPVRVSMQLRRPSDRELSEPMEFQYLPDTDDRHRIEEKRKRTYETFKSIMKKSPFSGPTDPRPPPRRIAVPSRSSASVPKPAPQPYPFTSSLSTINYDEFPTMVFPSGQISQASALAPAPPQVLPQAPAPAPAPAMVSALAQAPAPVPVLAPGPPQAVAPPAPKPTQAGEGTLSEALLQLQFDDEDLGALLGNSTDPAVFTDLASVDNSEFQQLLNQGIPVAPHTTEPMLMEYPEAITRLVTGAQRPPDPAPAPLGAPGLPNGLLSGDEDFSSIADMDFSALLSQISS
Toll-like receptor 2 (Homo sapiens), sequence (O60603 whole entry): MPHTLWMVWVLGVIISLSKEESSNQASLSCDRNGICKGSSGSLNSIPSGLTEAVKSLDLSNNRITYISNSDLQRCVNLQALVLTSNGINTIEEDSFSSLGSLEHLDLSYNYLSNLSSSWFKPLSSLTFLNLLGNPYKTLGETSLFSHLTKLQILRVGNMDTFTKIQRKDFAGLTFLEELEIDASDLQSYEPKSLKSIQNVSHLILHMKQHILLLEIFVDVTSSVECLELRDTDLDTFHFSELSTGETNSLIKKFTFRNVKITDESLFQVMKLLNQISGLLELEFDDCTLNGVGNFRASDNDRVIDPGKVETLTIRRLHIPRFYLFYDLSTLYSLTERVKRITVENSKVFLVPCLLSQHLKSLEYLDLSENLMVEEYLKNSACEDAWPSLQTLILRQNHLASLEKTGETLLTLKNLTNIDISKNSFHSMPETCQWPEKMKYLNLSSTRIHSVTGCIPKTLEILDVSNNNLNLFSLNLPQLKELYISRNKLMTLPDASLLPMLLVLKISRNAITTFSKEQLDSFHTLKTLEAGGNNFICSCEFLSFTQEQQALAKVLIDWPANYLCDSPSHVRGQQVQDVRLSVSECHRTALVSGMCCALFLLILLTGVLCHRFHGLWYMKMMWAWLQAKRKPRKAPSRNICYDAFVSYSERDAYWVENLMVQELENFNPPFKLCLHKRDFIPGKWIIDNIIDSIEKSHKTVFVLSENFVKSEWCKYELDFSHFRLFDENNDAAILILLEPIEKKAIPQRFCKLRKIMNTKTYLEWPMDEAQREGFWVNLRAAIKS

Structure (SMILES): CCCCCCCCCCCC(=O)N[C@H]1[C@H](OC(=O)CCCCCCCCCCC)O[C@H](COC(=O)C(C)(CO)CO)[C@@H](OP(=O)([O-])[O-])[C@@H]1OC(=O)CCCCCCCCCCC.[Na+].[Na+]
Activity [1]: Active
Activity [2]: inactive
Activity (THP1-Xblue [3]): Dose-Dependent Effect
Activity (THP1-Xblue [4]): Dose-Dependent Effect
Activity (THP1-Xblue [5]): Dose-Dependent Effect
Activity [6]: Active
Activity [7]: Active
Activity [8]: Active
Activity [9]: 15.3%
Activity [10]: 19%
Activity [11]: Non-Toxic
Activity (THP1-Xblue [12]): inactive
Activity (THP1-Xblue [13]): inactive
Activity (THP1-Xblue [14]): inactive
Activity (THP1-Xblue [15]): inactive
Activity (Mus musculus [16]): Active
Activity (Mus musculus [17]): Active
Activity (Mus musculus [18]): Active
Activity (Mus musculus [19]): inactive
Activity [20]: Non-Toxic
Activity [21]: Non-Toxic
Activity [22]: Non-Toxic
Activity (Oryctolagus cuniculus [23]): Active
Activity (Oryctolagus cuniculus [24]): inactive
Activity (Oryctolagus cuniculus [25]): Active
Activity (Oryctolagus cuniculus [26]): Active
Activity (Oryctolagus cuniculus [27]): Active
Activity (Oryctolagus cuniculus [28]): Active
Activity (Oryctolagus cuniculus [29]): Active

Structure (SMILES): CCCCCCCCCCCCCC(=O)O[C@H](CCCCCCCCCCC)CC(=O)N[C@H]1[C@H](OC[C@H]2OC(O)[C@H](NC(=O)C[C@H](O)CCCCCCCCCCC)[C@@H](OC(=O)C[C@H](O)CCCCCCCCCCC)[C@@H]2O)O[C@H](CO)[C@@H](OP(=O)(O)O)[C@@H]1OC(=O)C[C@@H](CCCCCCCCCCC)OC(=O)CCCCCCCCCCCCC (some centres not stated)
Activity (Mus musculus [16]): Active
Activity (Mus musculus [17]): Active
Activity (Mus musculus [18]): Active
Activity (Mus musculus [30]): Active
Activity (Oryctolagus cuniculus [31]): Active
Activity (Oryctolagus cuniculus [32]): Active
Activity (Oryctolagus cuniculus [33]): Active
Activity (Oryctolagus cuniculus [34]): Active
Activity (Oryctolagus cuniculus [35]): Active
Activity (Oryctolagus cuniculus [36]): Active

Activity [9]: 1.3%
Activity [10]: 1.8%
Structure (SMILES): CCCCCCCCCCCC(=O)N[C@H]1[C@H](OC(=O)CCCCCCCCCCC)O[C@H](CO)[C@@H](OP(=O)(O)O)[C@@H]1OC(=O)CCCCCCCCCCC
Activity (THP1-Xblue [37]): inactive
